Results as given in patent publication EP4613273A1, “TREATMENT OF BONE LOSS” (priority 2024, dated 2025).
Counter-ions that a name gives are not always drawn. Like-named read-outs stand apart in the source and are kept apart here.

Assays:
Format in all cases: in vivo
[1] = Plasma pharmacokinetic of MIV-701 after single and repeated oral administration of MIV-701 besylate salt in healthy beagle dogs; settings: for Cmax at 312 h / Tmax at 312 h / AUC(0-inf) at 312 h / AUC(0-t) at 312 h / half-life at 312 h / Cmax at 0 h / Tmax at 0 h / AUC(0-inf) / AUC(0-t) / half-life: dog; for AUC(0-inf) at 312 h / AUC(0-inf): read-out: AUC(0-infini) (converted); for AUC(0-t) at 312 h / AUC(0-t): read-out: AUC(0-tfinal) (converted); for half-life at 312 h / half-life: read-out: T1/2 elimination (converted)
Protocol: (§1) Compound Ib besylate salt (referred to as MIV-701 besylate salt) was administered once daily for 14 days to 3 healthy beagle dogs at three different doses: 1 mg/kg, 10 mg/kg and 100 mg/kg.
The doses were consecutively administered for 14 days with a >5-day washout period between two dose levels.
(§2) Each treatment period can be resumed as follows: • J0 (T+24h): first Compound Ib besylate salt administration, withdrawal of blood samples for pharmacokinetic and plasma CTX-1 assessment (pre-dose and 0.5h, 1h, 2h, 4h, 8h and 24h after drug administration), pre-dose blood samples for hematology and clinical biochemistry (baseline values for safety assessment). • J1 to J12: pre-dose blood samples • J13: last Compound Ib besylate salt administration, withdrawal of plasma samples for pharmacokinetic and plasma CTX-1 assessment (pre-dose and 0.5h, 1h, 2h, 4h, 8h and 24h after drug administration), pre-dose sampling for hematology and clinical biochemistry (baseline values for safety assessment). • J15-J≥19: washout period.
(§3) After centrifugation of blood samples plasma aliquots were stored at -20°C. After thawing on ice, 30 µL of plasma were transferred into 1.5 ml microtube containing 270 µL acetonitrile. Microtubes were then vigorously stirred and then centrifuged (12000 rpm, 10 min, 4°C) and the supernatant was transferred in Matrix tube for LC-MS/MS analysis. Calibration curve (9 points, 3 to 30 000 nM) was obtained by spiking plasma samples from naive dogs with appropriate quantities of Compound Ib.
(§4) Equipment: LC-MS/MS Acquity I Class-Wevo TQD (Waters®): - Acquity I Class ∘ Column: Waters® Acquity BEH C8, 50*2.1mm, 1.7 µm (40°C) ∘ Mobile phase: • ▪ A: Ammonium Formate 5mM, pH=3.8 • ▪ B: Ammonimuformate 5 mM in CH3CN 5% aqueous, pH=3.8 ∘ Injection volume: 1 µL ∘ Speed: 600 µL/min ∘ Gradient: […]
(§5) - Xevo TQD ∘ Source temperature: 150°C ∘ Desolvatation temperature: 600°C ∘ Cone gaz speed: 50L/h ∘ Desolvatation gaz speed: 1200L/h - Analytes MS characteristics
Terminal elimination half-life (t1/2) was calculated according to the following formula: T1/2 elimination = ln(2)/kel [formula] kel= slope of ln(C)=f(temps) calculated on the last points of the curves (elimination phase)/ MIV-701 exposure (Area Under the Curve; AUCt) was calculated according to trapezoidal method according to the following formula: AUCt−>inf = [C]t /kel [formula]

[2] = MIV-701/MIV-06404 plasma exposure ratio in dog; settings: single oral administration, exposure ratio (peak area)
Protocol: as §1, §2, §3, §4, §5

CTX-1 = experiment: Plasma CTX-1 in client-owned dogs with alveolar bone loss induced by spontaneously developed periodontal disease
Protocol: The present study was performed on 10 Beagle dogs suffering from alveolar bone loss induced by spontaneously developed periodontal disease. All dogs were treated with MIV-701 besylate salt for minimum 30 day and maximum 90 days, depending on the tolerance at intermediate visits. The product is administrated to the dog by its owner at home, once a day with a meal.
There were two treatment groups: • Group A (5 dogs) with a dose of 25 mg/kg. • Group B (5 dogs) with a dose of 50 mg/kg.
Administration protocol and dosage: MIV-701 besylate salt was administrated to dog once-a-day, at home with a standard meal. It was allowed to administrate the capsule(s) with a small amount of wet food/favorite snack. Opening of the capsule and spilling the product over the food was forbidden.
Treatment was administrated for 90 days. Every 30 days, based on the results of clinical exam, blood parameters and potential occurrence of adverse events suspected to be drug-related, the treatment prolongation for another 30 days, or discontinuation of treatment was decided by the Investigator.
Whole blood sample for CTX-1 analysis was collected at visit V2 (Day 0), visit V3 (Day 30+3 days), Visit V4 (Day 60t 3 days) and Visit V5 (Day 90t 3 days).
Each time, the blood sample was collected after overnight fasting, between 08:00 and 10:00 in the morning. As far as possible the blood sample was taken at the same time each visit. The night before the visit, the Investigational Product was administrated to the dog at 21:00.
The result from visit V2 (Day 0) was used as a baseline value for the efficacy evaluation criteria.
Each time 2 ml of the peripheral whole blood was collected on an anti-coagulant tube (K2EDTA) and gently inverted several times. Next, sample was centrifuged at 1500 G for 10 minutes at room temperature. The obtained plasma was divided into two Eppendorf tubes labelled as "Aliquot 1" and "Aliquot 2". Minimum 0.5 ml was placed in "Aliquot 1" while the rest of plasma was placed in "Aliquot 2". All obtained aliquots were immediately stored at - 20°C on site.
The CTX-1 analysis was performed at the end of the study by Central Laboratory. The shipment of aliquots from site to Central Laboratory was organized by the Monitor and divided into two, separated in time shipments. One with all "Aliquot 1" samples and second one with all "Aliquot 2" samples. The CTX-1 SAMPLE SHIPMENT FORM was joined to the shipment.

[3] = plasma MIV-701, oral 1 mg/kg once daily, Day 13 (repeated)
[4] = plasma MIV-701, oral 1 mg/kg, Day 0 (single)
[5] = plasma MIV-701, oral 10 mg/kg once daily, Day 13 (repeated)
[6] = plasma MIV-701, oral 10 mg/kg, Day 0 (single)
[7] = plasma MIV-701, oral 100 mg/kg once daily, Day 13 (repeated)
[8] = plasma MIV-701, oral 100 mg/kg, Day 0 (single)

SMILES: CC(C)C[C@H](NC(=O)c1ccc(-c2csc(N3CCN(C)CC3)n2)cc1)C(=O)N1C[C@H](F)[C@H]2OCC(O)(O)[C@H]21 [MIV-701 besylate salt, N-[(S)-1-((3aS,6S,6aS)-6-Fluoro-S-oxo-hexahydro-furo[3,2-b]pyrrole-4-carbony)-3-methyl-butyl]-4-[2-(4-methyl-piperazin-1-yl)-thiazol-4-yl]-benzamide benzenesulphonate]
- plasma accumulation of MIV-701 (Cmax, AUCs D13 vs D0) ([1]; 14-day repeated oral administration, three doses): did not show plasma accumulation
- Cmax at 312 h [1, 3]: 6.6 nM
- Tmax at 312 h [1, 3]: 2 h
- AUC(0-inf) at 312 h [1, 3]: 0.083 µM·h
- AUC(0-t) at 312 h [1, 3]: 0.036 µM·h
- half-life at 312 h [1, 3]: 8.6 h
- Cmax at 0 h [1, 4]: 20 nM
- Tmax at 0 h [1, 4]: 0.5 h
- AUC(0-inf) [1, 4]: 0.0488 µM·h
- AUC(0-t) [1, 4]: 0.0429 µM·h
- half-life [1, 4]: 2.9 h
- Cmax at 312 h [1, 5]: 130 nM
- Tmax at 312 h [1, 5]: 4 h
- AUC(0-inf) at 312 h [1, 5]: 1.91 µM·h
- AUC(0-t) at 312 h [1, 5]: 1.84 µM·h
- half-life at 312 h [1, 5]: 4.9 h
- Cmax at 0 h [1, 6]: 139 nM
- Tmax at 0 h [1, 6]: 1 h
- AUC(0-inf) [1, 6]: 1.38 µM·h
- AUC(0-t) [1, 6]: 1.35 µM·h
- half-life [1, 6]: 4.1 h
- Cmax at 312 h [1, 7]: 1620 nM
- Tmax at 312 h [1, 7]: 1 h
- AUC(0-inf) at 312 h [1, 7]: 21.4 µM·h
- AUC(0-t) at 312 h [1, 7]: 20.7 µM·h
- half-life at 312 h [1, 7]: 4.8 h
- Cmax at 0 h [1, 8]: 1280 nM
- Tmax at 0 h [1, 8]: 8 h
- AUC(0-inf) [1, 8]: 19.9 µM·h
- AUC(0-t) [1, 8]: 19.4 µM·h
- half-life [1, 8]: 4 h
- Kel (2-8h) [1, 3]: -0.080 h⁻¹
- Kel (2-8h) [1, 4]: -0.236 h⁻¹
- Kel (4-24h) [1, 5]: -0.142 h⁻¹
- Kel (8-24h) [1, 6]: -0.167 h⁻¹
- Kel (4-24h) [1, 7]: -0.144 h⁻¹
- Kel (8-24h) [1, 8]: -0.174 h⁻¹
- MIV-701/MIV06404 ratio ([2]; 1 mg/kg): 7.0
- MIV-701/MIV06404 ratio ([2]; 10 mg/kg): 3.6
- MIV-701/MIV06404 ratio ([2]; 100 mg/kg): 3.3
- patients with reduction in plasma CTX-1 (CTX-1; 10 dogs, Day-90): all but one patient experienced reduction
- mean % change in CTX-1 (CTX-1; CTX-1-responders (n=9), Day-90 vs Day-0): -67%±6%
- reduction of plasma CTX-1 vs baseline (Day-0) (CTX-1; dogs with periodontal disease, 25 and 50 mg/kg/day oral, Day-30 and Day-60, no significant difference between groups): comparable reduction
- reduction of plasma CTX-1 vs pre-treatment baseline (CTX-1; dogs with periodontal disease, Day-90 at 50 mg/kg/day, N=10): highly significant reduction
